According to patent publication US20240142458A1, “FLUORESCENT PROBES FOR QUANTIFICATION OF FREE COPPER” (TECHNISCHE UNIVERSITÄT BERLIN, priority 2020, published 2024):

Legend:
[1] = Metal-dependent changes of absorbance and fluorescence properties, cell-free; conditions: for new absorbance band peak after Cd^2+ treatment: decline of 416 nm maximum; for Soret peak of visible absorption: buffer-control treatment, pH 7.4, 10 μM probe
Caco-2 cells = experiment: Live-cell sensing of metal uptake into Caco-2 enterocytes; format: cell-based, human; conditions: for intracellular probe fluorescence upon extracellular FeSO4: 50 μM FeSO4, Caco-2 cells; for intracellular probe fluorescence upon Cu-exposure / intracellular probe response to incoming Cd^2+, Cu^2+, Hg^2+, Mn^2+, Pb^2+ and Zn^2+: 50 μM, Caco-2 cells
Experimental: FIG. 11: Live-cell sensing of metal uptake into Caco-2 enterocytes with p-H8THPPA and m-H8TPPA. • Caco-2 cells were loaded with p-H8THPPA or m-H8TPPA and the fluorescence recorded in 3 min intervals (⋅⋅Exc/Em.416 nm/650 nm). Fifteen minutes after the start of the experiment (arrow), metal cation solutions (final concentration 50 μM) or buffer (control) were added and the fluorescence measurement continued. Data are means±S.E.M. of n=3 independent experiments.
FIG. 12 Summary of cellular p-H8TPPA and m-H8TPPA metal responsiveness. • Data were taken from the last fluorescence readout shown in FIG. 11. Data are means+S.E.M. of n=3 independent experiments. Significant differences from buffer incubation ***p<0.001; **p<0.01; *p<0.05; one-way ANOVA/Dunnett's multiple comparison test.
The human intestinal cell line Caco-2 (European Collection of Cell Cultures, Porton Down, UK) were routinely cultured at 37° C., 5% CO2 and humidified atmosphere in Dulbecco's Modified Eagles Medium (DMEM), containing 10% fetal calf serum (FCS) 100 U/mL penicillin and 100 μg/ml streptomycin. For cellular phosphonate porphyrins experiments, Caco-2 cells were transferred into 96 wells (initially seeding 5000 cells per well) and cultured for 14 days for differentiation into an enterocyte-like monolayer^53,54. For phosphonate labeling, differentiated cells were treated with either m-H8TPPA, p-H8TPPA or p-H8TPPA-iPr8 in a HEPES-based incubation buffer (10 mM HEPES, pH 7.35, 120 mM NaCl, 5.4 mM KCl, 5 mM glucose, 1.3 mM CaCl2, 1 mM MgCl2, 1 mM NaH2PO4, 0.3% bovine serum albumin) for […] Excess fluorescent dye was removed by multiple washing steps before fluorescence emission scanning using 416 nm excitation (Tecan Infinite M200 reader; Tecan, Grödig/Salzburg, […]). To analyze metal responsiveness of the intracellular phosphonate porphyrins, cells were post-treated with 50 μM of different metal solutions at 37° C. in an albumin-free incubation buffer in a time-course experiment.

[2] = Effect of Cu-redox conversion on fluorescence; conditions: 10 μM CuSO4 +/- 500 μM L-ascorbic acid
Experimental: FIG. 10: Effect of Cu-redox conversion on p-H8THPPA and m-H8TPPA fluorescence properties • 10 μM CuSO4 solutions pretreated +/−500 μM of l-ascorbic acid (15 min) were mixed with p-H8-TPPA or m-H8TPPA followed by detection of fluorescence emission (⋅⋅Exc/Em.416 nm/650 nm). Data are means+S.E.M. of n=3 independent experiments. Statistically significant differences from control ***p<0.001; two-way ANOVA/Tukey post hoc test) or from Cu^2+ alone (#p<0.05; two-way ANOVA/Tukey post hoc test) are indicated.
Absorption spectra were recorded with a Tecan Infinite M200 Reader (Tecan Austria GmbH, Grödig/Salzburg, Switzerland) from 350 to 500 nm. The same device was used in fluorescence mode to measure fluorescence excitation ([…]; ⋅⋅Em. 650 nm) and fluorescence emission (550-850 nm; ⋅⋅Exc. 415 nm) spectra. 3D scanning was performed on a Spark® multimode microplate reader (Tecan Austria GmbH, Grodig/Salzburg, Switzerland) from 350 to 450 nm (Exc.) and 555 to 850 nm (Em.) with a 5 nm step size, excitation and emission bandwidths of 5 nm, and a detector gain of 100. […] Following 30 min incubations at 37° C. absorption or fluorescence measurements were done. […] To evaluate the effect of metal chelators, the metal cation-treated incubation mixtures were posttreated with 50 equivalents of EDTA or EGTA for 15 min before fluorescence emission readout.

[3] = Reversibility of metal complexation upon addition of EDTA or EGTA; conditions: 50 equivalents
Experimental: FIG. 9: Reversibility of p-H8THPPA and m-H8TPPA metal complexation. • Fluorescence of metal cation pretreated p-H8THPPA or m-H8TPPA solutions upon addition of 50 equivalents of EDTA or EGTA (⋅⋅Exc/Em.416 nm/650 nm). Data are means±S.E.M. of n=3 independent experiments. Statistically significant differences from buffer incubation (***p<0.001; two-way ANOVA/ Tukey post hoc test) or from metal cation treatment (##p<0.01; ###p<0.001; two-way ANOVA/Tukey post hoc test) are indicated.
Absorption spectra were recorded with a Tecan Infinite M200 Reader (Tecan Austria GmbH, Grödig/Salzburg, Switzerland) from 350 to 500 nm. The same device was used in fluorescence mode to measure fluorescence excitation ([…]; ⋅⋅Em. 650 nm) and fluorescence emission (550-850 nm; ⋅⋅Exc. 415 nm) spectra. 3D scanning was performed on a Spark® multimode microplate reader (Tecan Austria GmbH, Grodig/Salzburg, Switzerland) from 350 to 450 nm (Exc.) and 555 to 850 nm (Em.) with a 5 nm step size, excitation and emission bandwidths of 5 nm, and a detector gain of 100. A typical reaction mix was made by combining equal volumes of 20 μM phosphonate porphyrins diluted in assay-buffer (50 mM HEPES in bidistilled water adjusted to […] with sodium hydroxide solution; depleted of multivalent cations with Chelex® 100 Resin pretreatment^51) and a double-concentrated metal cation solution. Following 30 min incubations at 37° C. absorption or fluorescence measurements were done. For redox conversion tests the CuSO4 solutions were pretreated with 500 μM of L-ascorbic acid before admixing into the phosphonate porphyrin dilutions. To evaluate the effect of metal chelators, the metal cation-treated incubation mixtures were posttreated with 50 equivalents of EDTA or EGTA for 15 min before fluorescence emission readout.

[4] = 10 μM probe, 40 μM metal, pH 7.4

O=P(O)(O)c1ccc(-c2c3nc(c(-c4ccc(P(=O)(O)O)cc4)c4ccc([nH]4)c(-c4ccc(P(=O)(O)O)cc4)c4nc(c(-c5ccc(P(=O)(O)O)cc5)c5ccc2[nH]5)C=C4)C=C3)cc1 [p-H8TPPA, 5,10,15,20-Tetrakis [p-phenylphosphonic acid] porphyrin]
fluorescence change upon Ca^2+ or Mg^2+ treatment [1, 4]: higher fluorescence | fluorescence change upon Mn^2+ and (far more pronounced) Pb^2+ treatment [1, 4]: dropped markedly | red-shift of the Soret band after Hg^2+ treatment [1, 4]: approximately 30 nm | fluorescence emission after Zn^2+ treatment relative to excitation properties ([1]; 10 μM probe, 40 μM metal, pH 7.4, FIG. 1): much lower than what would have been expected | new absorbance band peak after Cd^2+ treatment [1, 4]: 434 nm | Soret peak of visible absorption [1]: around 416 nm | intracellular probe fluorescence upon extracellular FeSO4 (Caco-2 cells): remained stable | intracellular probe fluorescence upon Cu-exposure (Caco-2 cells): strong and rapid decline | intracellular probe response to incoming Cd^2+, Cu^2+, Hg^2+, Mn^2+, Pb^2+ and Zn^2+ (Caco-2 cells): fluorescence silencing | fluorescence response to Cu^2+ and Cu^+ [2]: Quenching | response of Zn^2+ and Hg^2+ quenching to metal chelator posttreatment [3]: quenching was reversed | response of copper-induced fluorescence decrease to metal chelator posttreatment [3]: almost non-responsive

O=P(O)(O)c1cccc(-c2c3nc(c(-c4cccc(P(=O)(O)O)c4)c4ccc([nH]4)c(-c4cccc(P(=O)(O)O)c4)c4nc(c(-c5cccc(P(=O)(O)O)c5)c5ccc2[nH]5)C=C4)C=C3)c1 [m-H8TPPA, 5,10,15,20-tetrakis [m-phenylphosphonic acid] porphyrin]
fluorescence change upon Ca^2+ or Mg^2+ treatment [1, 4]: higher fluorescence | fluorescence change upon Mn^2+ and (far more pronounced) Pb^2+ treatment [1, 4]: dropped markedly | red-shift of the Soret band after Hg^2+ treatment [1, 4]: approximately 30 nm | new absorbance band peak after Cd^2+ treatment [1, 4]: 434 nm | Soret peak of visible absorption [1]: around 416 nm | intracellular probe fluorescence upon extracellular FeSO4 (Caco-2 cells): remained stable | intracellular probe fluorescence upon Cu-exposure (Caco-2 cells): strong and rapid decline | intracellular probe response to incoming Cd^2+, Cu^2+, Hg^2+, Mn^2+, Pb^2+ and Zn^2+ (Caco-2 cells): fluorescence silencing | fluorescence response to Cu^2+ and Cu^+ [2]: Quenching | response of Zn^2+ and Hg^2+ quenching to metal chelator posttreatment [3]: quenching was reversed | response of copper-induced fluorescence decrease to metal chelator posttreatment [3]: almost non-responsive
